The values below come from PubChem BioAssay AID248 (DTP/NCI, 2004).

“And” between values parts separate entries of the source, which are not always exact repeats. Equal values may be shown once. Inconclusive results and toxic doses are left out.

The test concerns L1210 leukemia ip in BDF1 mice, survival T/C. Description: NCI In Vivo Anticancer Drug Screen. Data for tumor model L1210 Leukemia (intraperitoneal) in B6D2F1 (BDF1) mice. Conditions: endpoint: mean survival time, higher = longer survival. The procedure, abridged: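 In this screen, tumor-bearing mice given compound are compared to those given vehicle, and their survival values are reported as a treated-to-control quotient.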

Where [1] appears, read: dose: 100.0 mg/kg/injection, schedule: Q01DX009 (ip), vehicle: Klucel (hydroxypropylcellulose) (HPC).
Where [2] appears, read: dose: 100.0 mg/kg/injection, schedule: Q04DX003 (ip), vehicle: Klucel (hydroxypropylcellulose) (HPC).
[3] abbreviates: dose: 200.0 mg/kg/injection, schedule: Q01DX009 (ip), vehicle: Klucel (hydroxypropylcellulose) (HPC).
Setting [4] is: dose: 200.0 mg/kg/injection, schedule: Q04DX003 (ip), vehicle: Klucel (hydroxypropylcellulose) (HPC).
Where [5] appears, read: dose: 400.0 mg/kg/injection, schedule: Q01DX009 (ip), vehicle: Klucel (hydroxypropylcellulose) (HPC).
The mark [6] stands for this setting: dose: 400.0 mg/kg/injection, schedule: Q04DX003 (ip), vehicle: Klucel (hydroxypropylcellulose) (HPC).
[7] abbreviates: dose: 100.0 mg/kg/injection, schedule: Q01DX001 (ip), vehicle: saline.
Setting [8] is: dose: 200.0 mg/kg/injection, schedule: Q01DX001 (ip), vehicle: saline.
Where [9] appears, read: dose: 50.0 mg/kg/injection, schedule: Q01DX009 (ip), vehicle: Klucel (hydroxypropylcellulose) (HPC).
[10] abbreviates: dose: 50.0 mg/kg/injection, schedule: Q04DX003 (ip), vehicle: saline.
Setting [11] is: dose: 100.0 mg/kg/injection, schedule: Q04DX003 (ip), vehicle: saline.

For the molecule `COC(=O)C(NC(C)=O)C(=O)OC`, the T/C is 98 % of control under setting [1]; 90 % of control under setting [2]; 104 % of control under setting [3]; 98 % of control under setting [4]; 96 % of control under setting [5]; 106 % of control under setting [6].

Turning to `FC1(F)SC2c3cccc4cccc(c34)C2C1(F)F` (configuration not stated), the T/C is, setting by setting: (dose: 100.0 mg/kg/injection, schedule: Q01DX009 (ip), vehicle: saline with Tween-80) 102 % of control; (dose: 200.0 mg/kg/injection, schedule: Q01DX009 (ip), vehicle: saline with Tween-80) 104 % of control; (dose: 400.0 mg/kg/injection, schedule: Q01DX009 (ip), vehicle: saline with Tween-80) 96 % of control.

As for `S=C(c1ccccn1)N1CCOCC1`, the T/C under setting [2] was 90 % of control, the T/C under setting [4] was 102 % of control and the T/C under setting [6] was 95 % of control.

Take `CN(C)c1ccc([N+](=O)[O-])cn1`: the T/C runs as follows: (dose: 100.0 mg/kg/injection, schedule: Q04DX002 (ip), vehicle: saline with Tween-80) 97 % of control; (dose: 200.0 mg/kg/injection, schedule: Q04DX002 (ip), vehicle: saline with Tween-80) 97 % of control.

For the molecule `Cc1cc(OC(=O)Nc2ccccc2Cl)ccc1[N+](=O)[O-]`, the T/C reads like this: under setting [1], 107 % of control; under setting [2], 100 % of control; under setting [3], 104 % of control; under setting [4], 89 % of control; under setting [5], 98 % of control; under setting [6], 102 % of control.

As for `CCOC(=O)c1cnc(SCC)nc1SC#N`, the T/C (dose: 100.0 mg/kg/injection, schedule: Q01DX009 (ip), vehicle: gum acacia) is 105 % of control; the T/C (dose: 100.0 mg/kg/injection, schedule: Q04DX003 (ip), vehicle: gum acacia) is 105 % of control; the T/C (dose: 200.0 mg/kg/injection, schedule: Q01DX009 (ip), vehicle: gum acacia) is 106 % of control; the T/C (dose: 200.0 mg/kg/injection, schedule: Q04DX003 (ip), vehicle: gum acacia) is 97 % of control; the T/C (dose: 400.0 mg/kg/injection, schedule: Q01DX009 (ip), vehicle: gum acacia) was 97 % of control; the T/C (dose: 400.0 mg/kg/injection, schedule: Q04DX003 (ip), vehicle: gum acacia) was 97 % of control.

As for `Clc1ccccc1/C=N/N1CCN(/N=C/c2ccccc2Cl)CC1`, the T/C was 97 % of control under setting [7]; 95 % of control under setting [8]; 101 % of control (dose: 400.0 mg/kg/injection, schedule: Q01DX001 (ip), vehicle: saline).

Take `Cc1ccc(NC(=O)COc2cc(Cl)c(Cl)cc2Cl)cc1[N+](=O)[O-]`: the T/C is 86 % of control (dose: 25.0 mg/kg/injection, schedule: Q01DX009 (ip), vehicle: Klucel (hydroxypropylcellulose) (HPC)); 100 % of control under setting [9]; 100 % of control and 92 % of control (dose: 75.0 mg/kg/injection, schedule: Q01DX009 (ip), vehicle: Klucel (hydroxypropylcellulose) (HPC)).

With `CC1(C)N=C(N)N=C(N)N1c1ccc(CC(=O)Nc2cccc(S(=O)(=O)F)c2)cc1`, the T/C was 105 % of control (dose: 6.25 mg/kg/injection, schedule: Q#A X018 (ip), vehicle: saline); 103 % of control (dose: 12.5 mg/kg/injection, schedule: Q01DX009 (ip), vehicle: saline); 111 % of control (dose: 12.5 mg/kg/injection, schedule: Q#A X018 (ip), vehicle: saline); 111 % of control (dose: 25.0 mg/kg/injection, schedule: Q01DX009 (ip), vehicle: saline); 117 % of control and 118 % of control (dose: 50.0 mg/kg/injection, schedule: Q01DX009 (ip), vehicle: saline); 118 % of control (dose: 50.0 mg/kg/injection, schedule: Q#A X018 (ip), vehicle: saline). Besides, the T/C was 100 % of control under setting [7] and 102 % of control under setting [8].

As for `CCCCC(=O)N(C(C)C)C(C)C`, the T/C by setting is: (dose: 50.0 mg/kg/injection, schedule: Q01DX009 (ip), vehicle: carboxymethylcellulose (CMC)) 94 % of control and 103 % of control; (dose: 100.0 mg/kg/injection, schedule: Q01DX009 (ip), vehicle: carboxymethylcellulose (CMC)) 97 % of control and 102 % of control; (dose: 100.0 mg/kg/injection, schedule: Q04DX002 (ip), vehicle: carboxymethylcellulose (CMC)) 95 % of control and 98 % of control; (dose: 200.0 mg/kg/injection, schedule: Q04DX002 (ip), vehicle: carboxymethylcellulose (CMC)) 95 % of control.

On to `COc1ccc(C2=CN(S(=O)(=O)c3ccc(C)cc3)CCc3ccccc32)cc1`, for which the T/C is, setting by setting: under setting [2], 96 % of control; under setting [4], 102 % of control; under setting [6], 92 % of control.

`CCc1ccc(N=Nc2ccc(-c3ccc(NC(C)=O)cc3)cc2)cc1`: the T/C is 94 % of control (dose: 100.0 mg/kg/injection, schedule: Q01DX001 (ip), vehicle: carboxymethylcellulose (CMC)); 102 % of control (dose: 200.0 mg/kg/injection, schedule: Q01DX001 (ip), vehicle: carboxymethylcellulose (CMC)); 105 % of control (dose: 400.0 mg/kg/injection, schedule: Q01DX001 (ip), vehicle: carboxymethylcellulose (CMC)).

Turning to `C=CCOCC(O)CN(C)CCCC` (configuration not stated), the T/C is 101 % of control (dose: 25.0 mg/kg/injection, schedule: Q04DX003 (ip), vehicle: saline); 100 % of control under setting [9]; 97 % of control under setting [10]; 94 % of control under setting [1]; 103 % of control and 91 % of control under setting [11].

For the molecule `Cc1ccc(S(=O)(=O)OC2CCC(C(C)(C)C)CC2Cl)cc1` (configuration not stated), the T/C under setting [1] was 98 % of control; the T/C under setting [11] was 98 % of control; the T/C under setting [3] was 108 % of control; the T/C (dose: 200.0 mg/kg/injection, schedule: Q04DX003 (ip), vehicle: saline) is 98 % of control; the T/C under setting [5] was 98 % of control; the T/C (dose: 400.0 mg/kg/injection, schedule: Q04DX003 (ip), vehicle: saline) is 94 % of control.

`CC1CN1CCCNC(=O)C(=O)NCCCN1CC1C` (configuration not stated): the T/C by setting is: (dose: 12.5 mg/kg/injection, schedule: Q04DX003 (ip), vehicle: saline) 110 % of control; under setting [10], 168 % of control.

As to `CCSCN1CCN(CSCC)CC1`, the T/C reads like this: under setting [7], 98 % of control; under setting [8], 104 % of control.

Take `CCOC(=O)/C(C#N)=C1/CC2CCC1(C)OC2(C)C` (configuration not stated): the T/C reads like this: under setting [2], 98 % of control; under setting [4], 96 % of control; under setting [6], 102 % of control.

As to `CCOC(=O)c1cnc(SC)nc1N1CCOCC1`, the T/C was 98 % of control under setting [2], 93 % of control under setting [4] and 100 % of control under setting [6].

Take `COc1ccc(OC)c(-n2cccc2C#N)c1`: the T/C by setting is: (dose: 100.0 mg/kg/injection, schedule: Q04DX002 (ip), vehicle: Klucel (hydroxypropylcellulose) (HPC)) 104 % of control; (dose: 200.0 mg/kg/injection, schedule: Q04DX002 (ip), vehicle: Klucel (hydroxypropylcellulose) (HPC)) 97 % of control; (dose: 400.0 mg/kg/injection, schedule: Q04DX002 (ip), vehicle: Klucel (hydroxypropylcellulose) (HPC)) 104 % of control.

On to `Cc1cc(C)c([N+](=O)[O-])c(C)c1`, for which the T/C reads like this: under setting [1], 104 % of control; under setting [3], 97 % of control; under setting [5], 92 % of control.
